Measured values reported in US12201796B2, “Devices configured to provide treatment at an Abreu brain thermal tunnel” (Brain Tunnelgenix Technologies Corp., priority 2014, dated 2025).

Columns and labels:
[1] = comparison of caffeine absorption into the blood stream from a patch on ABTT terminus and a patch on an upper arm; format: in vivo
Procedure: One experimental technique used by Applicant to verify the efficacy of the systems, apparatuses, devices, processes, and methods disclosed herein was to compare absorption of a chemical into the blood stream. The chosen chemical was caffeine, and a comparison was made between distribution of caffeine in the body from a 15 mm by 15 mm patch placed on ABTT terminus 10 and a 15 mm by 15 mm patch placed on an upper arm. Caffeine concentration was measured in the same location on the body. […] As is evident from FIG. 106, the peak concentration of caffeine from the patch placed on the arm occurred five hours after placement of the patch, which peak concentration from the patch placed on ABTT terminus 10 was about 30 minutes after placement of the patch. […] Other compounds tested show similar results. […] In addition, it should be noted that use of a known patch would be disadvantageous if applied to ABTT terminus 10, because a lesser quantity of a drug is required to achieve the same results. […] In order to achieve the same effect at ABTT terminus 10 as application of a conventional patch in a conventional application, only about ⅔ the quantity of a drug is required for the same effect at ABTT terminus 10.

[2] = transdermal melatonin patch on the skin of ABTT target area, research setting; conditions: patch with water, propylene glycol, lauric acid, hydroxypropylcellulose; non-rate-limiting membrane; contact area 1.0 cm^2
From the text: As a solution to this problem, MEL was applied transdermally on the skin of ABTT target area 10 using a patch that contained, in a solvent formulation, water, propylene glycol, lauric acid, and hydroxypropylcellulose, and also comprised a non-rate-limiting membrane designed to have active contact with an area 1.0 cm^2.

[3] = in vivo; cited from earlier work

Structure (SMILES): Cn1c(=O)c2c(ncn2C)n(C)c1=O [caffeine]
- time of peak concentration of caffeine after placement of the patch ([1]; 15 mm by 15 mm patch placed on ABTT terminus, FIG. 106 curve 1416): about 30 minutes
- time of peak concentration of caffeine after placement of the patch ([1]; 15 mm by 15 mm patch placed on upper arm, FIG. 106 curve 1414): five
- peak concentration from patch on ABTT terminus relative to peak concentration from patch on upper arm ([1]; 15 mm by 15 mm patches, concentration measured in the same location on the body): more than twice as high

Structure (SMILES): COc1ccc2[nH]cc(CCNC(C)=O)c2c1 [melatonin]
- therapeutic effect of patch delivering melatonin through the skin of ABTT target area [2]: shown to provide an intended therapeutic effect
- elimination half-life [3]: short
